A value given as a limit tells only on which side of the number the result lay.

In general, IC50 refers to the point on the concentration scale where inhibition reaches its midpoint.

In the experiment the target is T1, AHR (UniProt P35869).
T1 sequence (P35869 1-848): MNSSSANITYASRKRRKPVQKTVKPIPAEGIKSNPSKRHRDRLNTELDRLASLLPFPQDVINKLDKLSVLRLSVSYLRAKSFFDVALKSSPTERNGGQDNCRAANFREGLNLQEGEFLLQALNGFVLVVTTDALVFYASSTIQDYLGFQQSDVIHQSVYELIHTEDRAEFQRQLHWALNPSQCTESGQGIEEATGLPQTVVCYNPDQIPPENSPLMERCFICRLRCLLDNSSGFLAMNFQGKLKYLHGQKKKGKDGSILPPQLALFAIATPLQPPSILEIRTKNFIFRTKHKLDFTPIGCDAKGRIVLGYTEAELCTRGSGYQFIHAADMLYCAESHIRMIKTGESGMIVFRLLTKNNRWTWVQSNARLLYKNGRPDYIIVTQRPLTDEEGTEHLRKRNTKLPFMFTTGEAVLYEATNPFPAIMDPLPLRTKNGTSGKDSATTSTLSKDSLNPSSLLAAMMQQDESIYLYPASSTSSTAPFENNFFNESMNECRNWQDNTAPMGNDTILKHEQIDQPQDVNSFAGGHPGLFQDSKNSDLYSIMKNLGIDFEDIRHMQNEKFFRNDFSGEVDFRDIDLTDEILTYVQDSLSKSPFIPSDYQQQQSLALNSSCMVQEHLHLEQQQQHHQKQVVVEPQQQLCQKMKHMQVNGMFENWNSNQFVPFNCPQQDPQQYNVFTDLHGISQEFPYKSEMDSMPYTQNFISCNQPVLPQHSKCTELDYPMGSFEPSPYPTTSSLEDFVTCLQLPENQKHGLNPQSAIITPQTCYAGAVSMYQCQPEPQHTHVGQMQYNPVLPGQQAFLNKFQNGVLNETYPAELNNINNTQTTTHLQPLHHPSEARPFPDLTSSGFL
In words: DRE-Luciferase Reporter Assay (Alternate Method), Example 1B. Conditions: concentration which inhibits half of the luciferase activity induced by AHR activating ligand; DRE-luciferase reporter cell line. In kind it is cell-based. Here is the method:
AHR binds to Dioxin Responsive Elements (DRE) upstream of genes that it activates. One measure of AHR activity is activation of a reporter gene, such as luciferase, downstream of one or multiple DRE elements. Luciferase activity will reflect activation and inhibition of AHR in the cells expressing his reporter.
Murine Hepa1-6 or Hepa-1c1c7 or other murine cell line with a DRE-luciferase reporter either stably or transiently transfected were plated in media in plates (96-well, 384-well or other plates) and incubated overnight at 37° C. in a C02 incubator or compound and agonist were added at the time of plating. Likewise, human HepG2 or other human cell line with a DRE-luciferase reporter either stably or transiently transfected were plated in media in plates (96-well, 384-well or other plates) and incubated overnight at 37° C. in a C02 incubator or compound and agonist were added at the time of plating.
At the time that cells are plated or following incubation overnight, an AHR activating ligand, such as TCDD, kynurenine, ITE (2-(1H-indole-3-ylcarbonyl)-4-thiazolecarboxylic methyl ester), VAF347, BNF (beta-naphthoflavone), FICZ (6-formylindolo(3,2-b) carbazole or other AHR ligands, was added with or without AHR antagonist.
Cells were incubated for 4, 15 or 24 hours or another time point and then lysed for determination of luciferase activity as a read-out of the AHR activation or inhibition. Luciferase was measured with a commercial kit such as the Promega Luciferase kit or any kit or reagents that provide the luciferin substrate for measuring luciferase activity. The level of luciferase with only activating ligand added was the maximum signal while the luciferase with no ligand was the minimum signal. IC50 values were determined as the concentration which inhibits half of the luciferase activity.
For orientation: Reporter assays use an easily measured gene product as a stand-in for the process of interest.
Regarding `CC(C)c1cnn2c(N[C@H]3CNc4ccccc4C3)nc(-c3cncc(F)c3)nc12` [Compound I-35b, (R)—N-(2-(5-Fluoropyridin-3-yl)-8-isopropylpyrazolo[1,5-a][1,3,5]triazin-4-yl)-1,2,3,4-tetrahydroquinolin-3-amine], the IC50 was in the range of 500 to 1000 nM.

`CC(C)c1cnn2c(N[C@@H]3CCc4[nH]c(=O)ccc4C3)nc(-c3cncc(F)c3)nc12` [Compound I-36a, (R)-6-((2-(5-Fluoropyridin-3-yl)-8-isopropylpyrazolo[1,5-a][1,3,5]triazin-4-yl)amino)-5,6,7,8-tetrahydroquinolin-2(1H)-one] registered an IC50 of over 1500 nM.

Regarding `CC(C)c1cnn2c(N[C@H]3CCc4[nH]c(=O)ccc4C3)nc(-c3cncc(F)c3)nc12` [Compound I-36b, (S)-6-((2-(5-Fluoropyridin-3-yl)-8-isopropylpyrazolo[1,5-a][1,3,5]triazin-4-yl)amino)-5,6,7,8-tetrahydroquinolin-2(1H)-one], the IC50 is over 1500 nM.

On to `CC(C)c1cnn2c(N[C@@H]3CNc4ncccc4C3)nc(-c3cncc(F)c3)nc12` [Compound I-37a, (3S)—N-[2-(5-Fluoro-3-pyridyl)-8-isopropyl-pyrazolo[1,5-a][1,3,5]triazin-4-yl]-1,2,3,4-tetrahydro-1,8-naphthyridin-3-amine], for which the IC50 was in the range of 500 to 1000 nM.

For the molecule `CC(C)c1cnn2c(N[C@H]3CNc4ncccc4C3)nc(-c3cncc(F)c3)nc12` [Compound I-37b, (3R)—N-[2-(5-Fluoro-3-pyridyl)-8-isopropyl-pyrazolo[1,5-a][1,3,5]triazin-4-yl]-1,2,3,4-tetrahydro-1,8-naphthyridin-3-amine], the half-inhibitory concentration (IC50) is under 500 nM.

`Fc1cncc(-c2nc(N[C@@H]3CCc4[nH]c5ccccc5c4C3)n3ncc(N4CCOCC4)c3n2)c1` [Compound I-38, (3R)—N-[2-(5-Fluoro-3-pyridyl)-8-morpholino-pyrazolo[1,5-a][1,3,5]triazin-4-yl]-2,3,4,9-tetrahydro-1H-carbazol-3-amine]: the half-maximal inhibitory concentration (IC50) was under 500 nM.

The molecule `CC(C)c1cnn2c(NCCCCO)nc(-c3cncc(F)c3)nc12` [Compound I-39, 4-[[2-(5-Fluoro-3-pyridyl)-8-isopropyl-pyrazolo[1,5-a][1,3,5]triazin-4-yl]amino]butan-1-ol] showed an IC50 of over 1500 nM.

On to `CC(CO)CCNc1nc(-c2cncc(F)c2)nc2c(C(C)C)cnn12` (stereo not drawn) [Compound I-40, 4-[[2-(5-Fluoro-3-pyridyl)-8-isopropyl-pyrazolo[1,5-a][1,3,5]triazin-4-yl]amino]-2-methyl-butan-1-ol], for which the IC50 was over 1500 nM.

The molecule `O[C@H](c1cnn2c(N[C@@H]3CCc4[nH]c5ccccc5c4C3)nc(-c3cncc(F)c3)nc12)C(F)(F)F` [Compound I-41a, (1R)-2,2,2-Trifluoro-1-[2-(5-fluoro-3-pyridyl)-4-[[(3R)-2,3,4,9-tetrahydro-1H-carbazol-3-yl]amino]pyrazolo[1,5-a][1,3,5]triazin-8-yl]ethanol] showed an IC50 of under 500 nM.

For `O[C@@H](c1cnn2c(N[C@@H]3CCc4[nH]c5ccccc5c4C3)nc(-c3cncc(F)c3)nc12)C(F)(F)F` [Compound I-41b, (1S)-2,2,2-trifluoro-1-[2-(5-fluoro-3-pyridyl)-4-[[(3R)-2,3,4,9-tetrahydro-1H-carbazol-3-yl]amino]pyrazolo[1,5-a][1,3,5]triazin-8-yl]ethanol], the IC50 was under 500 nM.

As for `C[C@H](O)c1cnc2c(N[C@@H]3CCc4[nH]c5ccccc5c4C3)nc(-c3cncc(F)c3)nn12` [Compound I-42a, (1S)-1-[2-(5-Fluoro-3-pyridyl)-4-[[(3R)-2,3,4,9-tetrahydro-1H-carbazol-3-yl]amino]imidazo[2,1-f][1,2,4]triazin-7-yl]ethanol], the IC50 was under 500 nM.

Consider `C[C@@H](O)c1cnc2c(N[C@@H]3CCc4[nH]c5ccccc5c4C3)nc(-c3cncc(F)c3)nn12` [Compound I-42b, (1R)-1-[2-(5-Fluoro-3-pyridyl)-4-[[(3R)-2,3,4,9-tetrahydro-1H-carbazol-3-yl]amino]imidazo[2,1-f][1,2,4]triazin-7-yl]ethanol], for which the IC50 is under 500 nM.

As for `CC(C)c1cnn2c(NCCCO)nc(-c3cncc(F)c3)nc12` [Compound I-43, 3-[[2-(5-Fluoro-3-pyridyl)-8-isopropyl-pyrazolo[1,5-a][1,3,5]triazin-4-yl]amino]propan-1-ol], the IC50 was over 1500 nM.

Regarding `CC(C)c1cnn2c(N[C@H]3CC[C@H](O)CC3)nc(-c3cncc(F)c3)nc12` [Compound I-44a, 4-[[2-(5-Fluoro-3-pyridyl)-8-isopropyl-pyrazolo[1,5-a][1,3,5]triazin-4-yl]amino]cyclohexanol], the IC50 is over 1500 nM.

Take `CC(C)c1cnn2c(N[C@H]3CC[C@@H](O)CC3)nc(-c3cncc(F)c3)nc12` [Compound I-44b, 4-[[2-(5-Fluoro-3-pyridyl)-8-isopropyl-pyrazolo[1,5-a][1,3,5]triazin-4-yl]amino]cyclohexanol]: the IC50 is over 1500 nM.

`CC(C)c1cnn2c(NCCNc3ccccn3)nc(-c3cncc(F)c3)nc12` [Compound I-45, N′-[2-(5-Fluoro-3-pyridyl)-8-isopropyl-pyrazolo[1,5-a][1,3,5]triazin-4-yl]-N-(2-pyridyl)ethane-1,2-diamine] yielded an IC50 of 1000 to 1500 nM.

In turn, `CC(C)c1cnn2c(N[C@H]3CCc4[nH]c5ccccc5c4C3)nc(-c3cncc(F)c3)nc12` [Compound I-47, (3S)—N-[2-(5-Fluoro-3-pyridyl)-8-isopropyl-pyrazolo[1,5-a][1,3,5]triazin-4-yl]-2,3,4,9-tetrahydro-1H-carbazol-3-amine] had an IC50 of under 500 nM.

Molecule `CC(C)c1cnn2c(N[C@@H]3CCc4ccccc4C3)nc(-c3cncc(F)c3)nc12` [Compound I-48a, 2-(5-Fluoro-3-pyridyl)-8-isopropyl-N-[(2R)-tetralin-2-yl]pyrazolo[1,5-a][1,3,5]triazin-4-amine] came in with an IC50 of over 1500 nM.

`CC(C)c1cnn2c(N[C@H]3CCc4ccccc4C3)nc(-c3cncc(F)c3)nc12` [Compound I-48b, 2-(5-Fluoro-3-pyridyl)-8-isopropyl-N-[(2S)-tetralin-2-yl]pyrazolo[1,5-a][1,3,5]triazin-4-amine]: the IC50 is over 1500 nM.

With `CC(CO)CNc1nc(-c2cncc(F)c2)nc2c(C(C)C)cnn12` (stereo not drawn) [Compound I-49, 3-[[2-(5-Fluoro-3-pyridyl)-8-isopropyl-pyrazolo[1,5-a][1,3,5]triazin-4-yl]amino]-2-methyl-propan-1-ol], the IC50 was over 1500 nM.

The molecule `Fc1cncc(-c2nc(N[C@@H]3CCc4[nH]c5ccccc5c4C3)n3nc4c(c3n2)CNCC4)c1` [Compound I-50, 2-(5-Fluoro-3-pyridyl)-N-[(3R)-2,3,4,9-tetrahydro-1H-carbazol-3-yl]-7,8,9,10-tetrahydropyrido[2,3]pyrazolo[2,4-c][1,3,5]triazin-4-amine] showed an IC50 of over 1500 nM.

Consider `CNc1cnn2c(N[C@@H]3CCc4[nH]c5ccccc5c4C3)nc(-c3cncc(F)c3)nc12` [Compound I-51, 2-(5-Fluoro-3-pyridyl)-N8-methyl-N4-[(3R)-2,3,4,9-tetrahydro-1H-carbazol-3-yl]pyrazolo[1,5-a][1,3,5]triazine-4,8-diamine], for which the IC50 is under 500 nM.

`CN1CCN(c2cnn3c(N[C@@H]4CCc5[nH]c6ccccc6c5C4)nc(-c4cncc(F)c4)nc23)CC1` [Compound I-52, (3R)—N-[2-(5-Fluoro-3-pyridyl)-8-(4-methylpiperazin-1-yl)pyrazolo[1,5-a][1,3,5]triazin-4-yl]-2,3,4,9-tetrahydro-1H-carbazol-3-amine] had an IC50 of 500 to 1000 nM.

The molecule `CC(C)c1cnn2c(N[C@@H]3CCc4[nH]c5ccccc5c4C3)nc(-c3cnsc3)nc12` [Compound I-53, (3R)—N-(8-Isopropyl-2-isothiazol-4-yl-pyrazolo[1,5-a][1,3,5]triazin-4-yl)-2,3,4,9-tetrahydro-1H-carbazol-3-amine] had an IC50 of 500 to 1000 nM.

Values taken from patent US20220144839A1, “INDOLE AHR INHIBITORS AND USES THEREOF” (Ikena Oncology, Inc., priority 2018, published 2022).
